Assay results as given in paper PMC7684313, “In vitro and in vivo pharmacological activity of minor cannabinoids isolated from Cannabis sativa” (Scientific Reports, 2020).
Several values for one entry are separate records, joined by “and”; a condition that tells them apart may be missing. Equal values may be shown once. Entries after “also recorded” stand apart in the source; their conditions may differ. Read-outs that look alike come from different tables or passages of the source. Marks after values point to notes of the source that are not given here.

Experiments:
hCB2R [1] = molecular target: T1, hCB2R (Homo sapiens, UniProt P34972); assay: hCB2R-dependent recruitment of βarrestin2 (PathHunter CHO cells); type: cell-based; design: expressed in transfected cells; membranes; settings: CHO
T1 sequence (P34972 whole entry): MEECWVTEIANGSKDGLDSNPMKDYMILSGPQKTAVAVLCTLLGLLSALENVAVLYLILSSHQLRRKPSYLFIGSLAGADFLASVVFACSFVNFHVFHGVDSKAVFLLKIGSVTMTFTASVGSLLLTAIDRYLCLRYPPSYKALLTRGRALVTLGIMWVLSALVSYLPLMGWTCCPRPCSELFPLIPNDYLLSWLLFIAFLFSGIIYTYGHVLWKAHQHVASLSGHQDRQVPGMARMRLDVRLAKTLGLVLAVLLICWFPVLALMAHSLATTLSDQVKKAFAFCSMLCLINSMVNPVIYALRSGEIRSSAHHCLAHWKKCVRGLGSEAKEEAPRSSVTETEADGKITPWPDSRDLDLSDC

hCB2R [2] = molecular target: T1, hCB2R; assay: Ligand bias between cAMP inhibition and βarrestin2 recruitment at hCB2R (operational model); type: cell-based; design: expressed in transfected cells; membranes; settings: ∆∆LogR > 0 bias for inhibition of cAMP, < 0 bias for βarrestin2; CP55,940 reference agonist
Protocol: (§1) Figure 8 Analysis of ligand bias for phytocannabinoids at hCB1R (a) and hCB2R (b).
(§2) Concentration–response curves (CRC) were fit using non-linear regression with variable slope (4 parameters) and used to calculate EC50, Emin, and Emax (GraphPad, Prism, v. 8.0). […] In vivo data are presented as % MPE for catalepsy (MPE = 60 s) and anti-nociception (MPE = 20 s), °C for body temperature, and distance travelled (m) and % time in the centre quadrant in 5 min for OFT. Post-hoc analyses were performed using Tukey’s (one-way ANOVA) test. Homogeneity of variance was confirmed using Bartlett’s test. All data were evaluated for possible outliers using Grubb’s test in GraphPad.

hCB1R [3] = molecular target: T2, hCB1R (Homo sapiens, UniProt P21554); assay: cell-based; settings: CHO; read-out: hCB1R Emax, recruitment of βarrestin2
T2 construct: expressed in transfected cells; membranes
T2 sequence (P21554 whole entry): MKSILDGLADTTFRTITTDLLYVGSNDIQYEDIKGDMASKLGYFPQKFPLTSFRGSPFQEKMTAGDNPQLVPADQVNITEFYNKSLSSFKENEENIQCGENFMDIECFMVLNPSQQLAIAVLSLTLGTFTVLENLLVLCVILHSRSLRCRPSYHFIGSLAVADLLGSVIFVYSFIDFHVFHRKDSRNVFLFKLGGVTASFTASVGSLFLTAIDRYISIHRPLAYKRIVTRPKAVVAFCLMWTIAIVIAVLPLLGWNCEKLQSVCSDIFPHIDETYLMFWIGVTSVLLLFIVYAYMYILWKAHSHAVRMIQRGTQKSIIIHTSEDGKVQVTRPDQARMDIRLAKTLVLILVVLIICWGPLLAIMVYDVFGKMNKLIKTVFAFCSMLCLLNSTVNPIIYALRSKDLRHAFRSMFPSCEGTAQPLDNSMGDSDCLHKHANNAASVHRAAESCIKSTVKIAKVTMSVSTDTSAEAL

CB1R = settings: read-out: affinity for CB1R (previous reports); cited from earlier work
hCB2R [4] = molecular target: T1, hCB2R; assay: [^3H]CP55,940 displacement from hCB2R CHO cell membranes
hCB1R [5] = molecular target: T2, hCB1R; assay: Ligand bias between cAMP inhibition and βarrestin2 recruitment at hCB1R (operational model); type: cell-based; settings: ∆∆LogR > 0 bias for inhibition of cAMP, < 0 bias for βarrestin2; CP55,940 reference agonist
Protocol: as §1, §2

hCB1R [6] = molecular target: T2, hCB1R; assay: biochemical; type: binding
C57BL/6 mice [7] = assay: Time in the centre quadrant of the OFT (anxiety-like behaviour); type: in vivo; settings: 10 mg/kg i.p.; 1 h post-injection
Protocol: (§3) Asterisk colour matches the treatment group assessed.
as §2

CB2R = settings: read-out: affinity for CB2R (previous reports); cited from earlier work
hCB2R [8] = molecular target: T1, hCB2R; assay: biochemical
hCB2R [9] = molecular target: T1, hCB2R; assay: hCB2R-dependent inhibition of FSK-stimulated cAMP accumulation (HitHunter CHO cells); type: cell-based; design: expressed in transfected cells; membranes
hCB1R [10] = molecular target: T2, hCB1R; assay: cell-based; type: cell-based
C57BL/6 mice [11] = assay: Nociception in the tail flick assay (tetrad); type: in vivo; settings: 3 mg/kg i.p.; 15 min post-injection
Protocol: as §3, §2

CCCCCc1cc(O)c(C/C=C(\C)CCC=C(C)C)c(O)c1 [CBG, cannabigerol]
Emax (hCB2R [1]): 22 ± 1.2% | ligand bias at hCB2R (∆∆LogR), in words (hCB2R [2]): bias for inhibition of cAMP relative to βarrestin2 | Emax (hCB1R [3]): 0.41 ± 0.45% | Ki (CB1R): > 1000 nM | hCB2R Emin (hCB2R [4]; bottom of the concentration–response curve of [^3H]CP55,940 displacement, %CP55,940 response, mean ± SEM): 32 ± 8.1% | extent of [^3H]CP55,940 displacement from hCB2R, in words (hCB2R [4]; concentration range 0.1 nM–10 µM): displaced [^3H]CP55,940 from hCB2R to an extent that was not different from CP55,940 | ligand bias at hCB1R (∆∆LogR), in words (hCB1R [5]): bias for the inhibition of cAMP relative to βarrestin2 | Ki (hCB1R [6]): 1300 nM | extent of [^3H]CP55,940 displacement from hCB1R, in words (hCB1R [6]): weakly displaced [^3H]CP55,940 at concentrations ≥ 1 µM | hCB1R Emin (hCB1R [6]): 49 ± 7.2*^ % | time in the central quadrant of the OFT (modelled anxiolytic effect), in words (C57BL/6 mice [7]): anxiolytic-like effect | Ki (CB2R): > 1000 nM | Ki (hCB2R [8]): 500 nM and 490 nM | agonist activity in hCB2R cAMP inhibition, in words (hCB2R [9]; 0.1 nM–10 µM, relative to CP55,940): weak partial agonist | Emax (hCB2R [9]; CHO): 39 ± 11% | EC50 (hCB2R [9]; HitHunter CHO hCB2R cells, 90 min, 95% CI in brackets, read-out: hCB2R EC50, inhibition of FSK-stimulated cAMP accumulation): 130 nM | agonist activity in hCB1R cAMP inhibition, in words (hCB1R [10]): weak partial agonist | Emax (hCB1R [10]; CHO, read-out: hCB1R Emax, inhibition of FSK-stimulated cAMP accumulation): 68 ± 2.4% | EC50 (hCB1R [10]; HitHunter CHO hCB1R cells, 90 min, 95% CI in brackets, read-out: hCB1R EC50, inhibition of FSK-stimulated cAMP accumulation): 120 nM | anti-nociceptive effect (tail flick latency), in words (C57BL/6 mice [11]): weak anti-nociceptive effect; also recorded: small but statistically significant anti-nociceptive effect
